Test results published in paper PMC12257540, “From Inhibitors to PET: SAR-Based Development of [^18F]SK60 for mIDH1 Imaging” (Journal of Medicinal Chemistry, 2025).

How the values were obtained:
IDH1-U251 cells = experiment: In vitro cell uptake of [18F]SK60 in IDH1-U251 cells; assay type: cell-based, Human; conditions: 240 min incubation
Procedure: Human U251 glioblastoma cells, stably transfected and overexpressing either wild-type IDH1 (IDH1-U251) or IDH1R132H (IDH1R132H–U251), were obtained from Jaqueline Kessler and Dirk Vordermark (Department of Radiotherapy, Martin Luther University Halle-Wittenberg, Halle/Saale, Germany). Cells were grown in RPMI 1640 medium (10% FCS), supplemented with puromycin, to ensure the cultivation of transfected cells only.
The IDH1-U251 and IDH1R132H–U251 cells were seeded at 4,00,000 cells/mL in a 24-well cell culture plate 1 day before the experiment. The medium was replaced by 400 μL/well, and 4 μL of a 100-x stock solution of the respective inhibitor in 10% DMSO or vehicle (10% DMSO) was added about 2 h before the experiment. The experiment was started with the addition of 100 μL of [ ^ 18 F]-SK60 (0.477 ± 0.002 MBq/mL; 4.86 ± 0.33 nM) diluted in cell culture medium per well, and the well plates were incubated in a humidified-air atmosphere incubator containing 5% CO2 at 37 °C for various times. The incubation was stopped by aspiration of the supernatant and washing the cell layers twice with prechilled PBS (500 μL/well). […] The concentrations of surface-bound and internalized activities per well were calculated as a percentage of the applied dose per well and normalized to the protein concentration per well (% AD/μg protein). […]

[1] = test system: IDH1R132H-U251 cells (target-positive) and IDH1-U251 cells (target-negative); experiment: Real-time radioligand binding (LigandTracer) to live U251 cells; design: species or system Human; conditions: room temperature, medium without or with 5 % BSA
Procedure: Real-time radioligand binding
Real-time radioligand binding using LigandTracer®
The LigandTracer (LigandTracer Yellow, Ridgeview Instruments AB, Uppsala, Sweden) system allows assessment of binding kinetics (association rate constant ka and dissociation rate constant kd) and therefore dissociation constant (KD).
Briefly, target-positive/-negative cells are seeded to different quadrants of a petri dish (Thermo Scientific Nunclon Delta #150350). Here, approximately 5x10^4 target-positive cells (IDH1R132H-U251 cells) and target-negative cells (IDH1-U251 cells) were seeded in a ~20 mm round spot (0.5 mL of a solution of 1x10^5 cells/mL), three days before the experiment. […]
The culture medium is removed and replaced with 3 mL CO2-independent medium (Gibco #18045088, ThermoFisher Germany) without or with bovine serum albumin (BSA) (5 %; #3737.3, Carl Roth GmbH, Karlsruhe, Germany). In the instrument, the dish rotates on an inclined base, where cells in medium (3 mL) are located on one side, while radioactivity is detected on the opposite side. This allows continuous measurements of two or more alternating parts of the dish for bound radioactivity (e.g. target-positive) against background (e.g. no cells) or target-negative cells. […]
Data was acquired in decay-corrected counts per second (CPS) and subsequently analyzed using TraceDrawer (1.9.2, Ridgeview Instruments AB, Uppsala, Sweden). […]

[2] = PET-based biodistribution in naïve mice
Procedure: For the time of the experiments, female CD-1 mice (n = 4; 8–10 weeks; 37–40 g) were kept in a dedicated climatic chamber with free access to water and food under a 12:12 h dark: light cycle at a constant temperature (24 °C). The animals were anesthetized (Anaesthesia Unit U-410, agntho’s, Lidingö, Sweden) with isoflurane (2.0%, 300 mL/min) delivered in a 20% oxygen/80% air mixture (Gas Blender 100 Series, MCQ instruments, Rome, Italy) and their body temperature maintained at 37 °C with a thermal bed system. […] Each PET image was corrected for random coincidences, dead time, scatter, and attenuation (AC) based on a whole body (WB) MR scan. The reconstruction parameters for the list mode data were 3D-ordered subset expectation maximization (OSEM), 4 iterations, 6 subsets, energy window: 400–600 keV, coincidence mode: 1–5, ring difference: 81. The PET data were collected by a continuous WB scan during the entire investigation. […] The brain region was identified using the mouse brain atlas template Ma-Benveniste-Mirrione-FDG. The activity data are expressed as the SUVmean of the overall ROI.

For `Cc1cccc(NC(=O)c2nn(Cc3ccc([18F])cc3)c3c2CN(C(=O)c2ccc[nH]2)CC3(C)C)c1` [[18F]SK60], the internalized radioligand (IDH1-U251 cells) was 0.074 ± 0.023 % AD/μg protein, the surface-bound radioligand (IDH1-U251 cells) was 0.052 ± 0.029 % AD/μg protein and the “real-time radioligand binding to live cells” value [1] was “Reliable binding of [18F]SK60 could not be observed”. For the same compound, the accumulation in gallbladder ([2]; PET, gallbladder, 30 min, n = 2) was 60 SUVmean, the accumulation in liver ([2]; PET, liver, 30 min, n = 2) was 1.6 SUVmean and the brain uptake ([2]; brain, 15 min p.i.) was about 0.3 SUVmean.
